Data: paper PMC10821532, “Sex and Cross-Sex Testosterone Treatment Alters Gamma-Hydroxybutyrate Acid Toxicokinetics and Toxicodynamics in Rats” (Pharmaceutics, 2024)
Where two headings read alike, the source gives them in different places.

Test: GHB toxicokinetic study, i.v. bolus, plasma and urine up to 8 h, noncompartmental analysis
Format: in vivo, Sprague Dawley rats
Details: rat, iv
Procedure: Male and female Sprague Dawley (SD) rats, ovariectomized (OVX) females, and castrated (CST) males were obtained from Charles River (Wilmington, MA, USA) at 8 weeks of age. The animals were housed under controlled temperature and humidity with an artificial 12 h light/dark cycle, and food and water were available ad libitum. The animals were acclimatized for at least one week before experiments. Hormone treatment was conducted by implanting OVX female and CST male rats subcutaneously with 60-day release pellets containing 7.5 mg testosterone or corresponding placebo pellets (Innovative Research of America) at 10 weeks of age. After 21 days of hormone exposure, rats were utilized in toxicokinetic studies. Age-matched male and female rats were used as control groups. Female rats in the estrus stage were selected for the study. Estrus cycle stages of female rats were monitored daily by vaginal lavage smear, as described in previously published literature. The Institutional Animal Care and Use Committee (IACUC) at the University of the Pacific approved all experiments.
Jugular vein cannulas were surgically implanted under anesthesia with ketamine/xylazine. Cannulas were flushed daily with heparinized saline to maintain patency. Rats were allowed a minimum of 72 h for recovery from surgery before the experiments were conducted. GHB was administered intravenously as a 1000 mg/kg i.v. bolus or 1500 mg/kg iv bolus with or without AR-C155858 (1 mg/kg i.v. bolus) via a jugular vein cannula to the animals at 13 weeks of age (N = 5–7 per group). Rats were dosed in metabolic cages with ad libitum access to water to allow for the concurrent collection of blood and urine samples for up to 8 h. GHB was administered as a 300 mg/mL solution in sterile water, and the time of administration was considered as time 0. AR-C155858 was administered as a 1 mg/mL solution in 10% cyclodextrin in normal saline 5 min after GHB administration. Blood samples (200 μL) were taken from the jugular vein cannula at different time points: 5, 10, 20, 30, 60, 90, 120, 180, 240, 270, 300, and 330 min for 1000 mg/kg and 10, 30, 60, 90, 120, 180, 240, 270, 300, 330, 360, and 390/480 min for 1500 mg/kg bolus with or without AR-C155858. Plasma samples were separated by centrifugation and stored at −20 °C. Urine samples were collected at 120, 240, and 360 min for 1000 mg/kg and 120, 240, and 390/480 min for 1500 mg/kg bolus with or without AR-C155858 post-dose; the total urine volume was determined, and the samples were stored at −20 °C.
GHB in plasma and urine were quantified using a validated liquid chromatography/tandem mass spectrometry (LC/MS/MS) assay that was described previously. Briefly, for the preparation of plasma standards and quality controls (QCs), 5 μL of GHB-d6 and 5 μL of standard stock solution or QC stock solution were added to 45 μL of blank plasma. For each unknown plasma sample, 5 μL of GHB-d6 was added to 50 μL of plasma. Protein precipitation was then performed by the addition of 800 μL of acetonitrile with 0.1% formic acid, followed by centrifugation at 10,000 rpm for 20 min. 750 μL of the supernatant was transferred to a clean disposable glass tube and evaporated using a MultiVap Nitrogen Evaporator (Organomation, Berlin, MA, USA) under a nitrogen stream. Dried samples were reconstituted in 250 μL of 95:5 double-distilled water—acetonitrile with 0.1% acetic acid. For urine standards and QCs, 25 μL of blank urine, 5 μL of standard or QC stock solution, 5 μL of GHB-d6, and 465 μL of double-distilled water were mixed. For unknown urine samples, 25 μL of the sample was added to 5 μL of GHB-d6 and 470 μL of double-distilled water. The same LC/MS/MS method was used for GHB plasma and urine analyses. LC/MS/MS equipment consisted of an Agilent 1200 series UPLC consisting of an online degasser, binary pump, and autosampler (Agilent Technologies, Santa Clara, CA, USA) connected to a Agilent 6460 Triple Quad Mass Spectrometer. […]

O=C(O)CCCO [GHB, Γ-hydroxybutyric acid]
clearance (female, Sprague Dawley, plasma and urine, 1000 mg/kg, 1000 mg/kg GHB iv, intact female (estrus) rats, read-out: CLm – Metabolic clearance): 4.1 ± 0.6 mL/min/kg
CL renal (female, Sprague Dawley, plasma and urine, 1500 mg/kg, 1500 mg/kg GHB iv, OVX testosterone placebo rats, read-out: CLR (renal clearance)): 3.5 ± 0.5 mL/min/kg
CL renal (female, Sprague Dawley, plasma and urine, 1500 mg/kg, 1500 mg/kg GHB iv, OVX testosterone rats, read-out: CLR (renal clearance)): 2.7 ± 1.5 mL/min/kg
CL renal (female, Sprague Dawley, plasma and urine, 1500 mg/kg, 1500 mg/kg GHB iv, intact female (estrus) rats, read-out: CLR (renal clearance)): 3.7 ± 1.1 mL/min/kg
clearance (female, Sprague Dawley, plasma, 1000 mg/kg, 1000 mg/kg GHB iv, OVX testosterone placebo rats, read-out: CL - Total clearance): 5.5 ± 0.3 mL/min/kg
clearance (female, Sprague Dawley, plasma, 1000 mg/kg, 1000 mg/kg GHB iv, intact female (estrus) rats, read-out: CL - Total clearance): 6.8 ± 0.7 mL/min/kg
clearance (female, Sprague Dawley, plasma, 1500 mg/kg, 1500 mg/kg GHB iv, intact female (estrus) rats, read-out: CL (total clearance)): 4.7 ± 1.1 mL/min/kg
CL renal (female, Sprague-Dawley, plasma and urine, 1500 mg/kg, 1500 mg/kg GHB + 1mg/kg AR-C 155858 iv, OVX testosterone placebo rats, read-out: CLR (renal clearance)): 7 ± 1.4 mL/min/kg
clearance (female, Sprague-Dawley, plasma and urine, 1500 mg/kg, 1500 mg/kg GHB + 1mg/kg AR-C 155858 iv, OVX testosterone placebo rats, read-out: CLm (metabolic clearance)): 2.7 ± 0.9 mL/min/kg
CL renal (female, Sprague-Dawley, plasma and urine, 1500 mg/kg, 1500 mg/kg GHB + 1mg/kg AR-C 155858 iv, OVX testosterone rats, read-out: CLR (renal clearance)): 7 ± 0.9 mL/min/kg
clearance (female, Sprague-Dawley, plasma and urine, 1500 mg/kg, 1500 mg/kg GHB + 1mg/kg AR-C 155858 iv, OVX testosterone rats, read-out: CLm (metabolic clearance)): 2.4 ± 1.3 mL/min/kg
CL renal (female, Sprague-Dawley, plasma and urine, 1500 mg/kg, 1500 mg/kg GHB + 1mg/kg AR-C 155858 iv, intact female (estrus) rats, read-out: CLR (renal clearance)): 6.3 ± 1.8 mL/min/kg
clearance (female, Sprague-Dawley, plasma and urine, 1500 mg/kg, 1500 mg/kg GHB + 1mg/kg AR-C 155858 iv, intact female (estrus) rats, read-out: CLm (metabolic clearance)): 2.2 ± 0.4 mL/min/kg
clearance (female, Sprague-Dawley, plasma, 1500 mg/kg, 1500 mg/kg GHB + 1mg/kg AR-C 155858 iv, OVX testosterone placebo rats, read-out: CL (total clearance)): 9.7 ± 2.1 mL/min/kg
clearance (female, Sprague-Dawley, plasma, 1500 mg/kg, 1500 mg/kg GHB + 1mg/kg AR-C 155858 iv, OVX testosterone rats, read-out: CL (total clearance)): 9.4 ± 1.4 mL/min/kg
clearance (female, Sprague-Dawley, plasma, 1500 mg/kg, 1500 mg/kg GHB + 1mg/kg AR-C 155858 iv, intact female (estrus) rats, read-out: CL (total clearance)): 8.5 ± 1.9 mL/min/kg
clearance (female, Sprague-Dawley, plasma, 1500 mg/kg, 1500 mg/kg GHB iv, OVX testosterone placebo rats, read-out: CL (total clearance)): 5.7 ± 0.9 mL/min/kg
CL renal (male, Sprague Dawley, plasma and urine, 1000 mg/kg, 1000 mg/kg GHB iv, CST testosterone placebo rats, read-out: CLR - Renal clearance): 3 ± 0.7 mL/min/kg
clearance (male, Sprague Dawley, plasma and urine, 1000 mg/kg, 1000 mg/kg GHB iv, CST testosterone placebo rats, read-out: CLm – Metabolic clearance): 1.6 ± 0.5 mL/min/kg
clearance (male, Sprague Dawley, plasma and urine, 1000 mg/kg, 1000 mg/kg GHB iv, CST testosterone rats, read-out: CLm – Metabolic clearance): 2.1 ± 0.4 mL/min/kg
CL renal (male, Sprague Dawley, plasma and urine, 1000 mg/kg, 1000 mg/kg GHB iv, intact male rats, read-out: CLR - Renal clearance): 2.2 ± 0.4 mL/min/kg
clearance (male, Sprague Dawley, plasma and urine, 1000 mg/kg, 1000 mg/kg GHB iv, intact male rats, read-out: CLm – Metabolic clearance): 2.4 ± 0.5 mL/min/kg
CL renal (male, Sprague Dawley, plasma and urine, 1500 mg/kg, 1500 mg/kg GHB iv, CST testosterone placebo rats, read-out: CLR (renal clearance)): 2.9 ± 0.4 mL/min/kg
CL renal (male, Sprague Dawley, plasma and urine, 1500 mg/kg, 1500 mg/kg GHB iv, intact male rats, read-out: CLR (renal clearance)): 4.2 ± 1.3 mL/min/kg
clearance (male, Sprague Dawley, plasma, 1000 mg/kg, 1000 mg/kg GHB iv, CST testosterone placebo rats, read-out: CL - Total clearance): 4.6 ± 0.8 mL/min/kg
clearance (male, Sprague Dawley, plasma, 1000 mg/kg, 1000 mg/kg GHB iv, CST testosterone rats, read-out: CL - Total clearance): 5.3 ± 1 mL/min/kg
clearance (male, Sprague Dawley, plasma, 1000 mg/kg, 1000 mg/kg GHB iv, intact male rats, read-out: CL - Total clearance): 4.6 ± 0.8 mL/min/kg
clearance (male, Sprague Dawley, plasma, 1500 mg/kg, 1500 mg/kg GHB iv, intact male rats, read-out: CL (total clearance)): 4.8 ± 1.4 mL/min/kg
CL renal (male, Sprague-Dawley, plasma and urine, 1000 mg/kg, 1000 mg/kg GHB iv, CST testosterone rats, read-out: CLR - Renal clearance): 3.2 ± 0.9 mL/min/kg
CL renal (male, Sprague-Dawley, plasma and urine, 1500 mg/kg, 1500 mg/kg GHB + 1mg/kg AR-C 155858 iv, CST testosterone placebo rats, read-out: CLR (renal clearance)): 5.4 ± 1.1 mL/min/kg
clearance (male, Sprague-Dawley, plasma and urine, 1500 mg/kg, 1500 mg/kg GHB + 1mg/kg AR-C 155858 iv, CST testosterone placebo rats, read-out: CLm (metabolic clearance)): 2.5 ± 1.3 mL/min/kg
CL renal (male, Sprague-Dawley, plasma and urine, 1500 mg/kg, 1500 mg/kg GHB + 1mg/kg AR-C 155858 iv, CST testosterone rats, read-out: CLR (renal clearance)): 5.6 ± 1.2 mL/min/kg
clearance (male, Sprague-Dawley, plasma and urine, 1500 mg/kg, 1500 mg/kg GHB + 1mg/kg AR-C 155858 iv, CST testosterone rats, read-out: CLm (metabolic clearance)): 1.9 ± 0.1 mL/min/kg
CL renal (male, Sprague-Dawley, plasma and urine, 1500 mg/kg, 1500 mg/kg GHB + 1mg/kg AR-C 155858 iv, intact male rats, read-out: CLR (renal clearance)): 6.1 ± 0.5 mL/min/kg
clearance (male, Sprague-Dawley, plasma and urine, 1500 mg/kg, 1500 mg/kg GHB + 1mg/kg AR-C 155858 iv, intact male rats, read-out: CLm (metabolic clearance)): 2.1 ± 0.3 mL/min/kg
CL renal (male, Sprague-Dawley, plasma and urine, 1500 mg/kg, 1500 mg/kg GHB iv, CST testosterone rats, read-out: CLR (renal clearance)): 1.4 ± 0.6 mL/min/kg
clearance (male, Sprague-Dawley, plasma, 1500 mg/kg, 1500 mg/kg GHB + 1mg/kg AR-C 155858 iv, CST testosterone placebo rats, read-out: CL (total clearance)): 7.9 ± 1.2 mL/min/kg
clearance (male, Sprague-Dawley, plasma, 1500 mg/kg, 1500 mg/kg GHB + 1mg/kg AR-C 155858 iv, CST testosterone rats, read-out: CL (total clearance)): 7.5 ± 1.4 mL/min/kg
clearance (male, Sprague-Dawley, plasma, 1500 mg/kg, 1500 mg/kg GHB + 1mg/kg AR-C 155858 iv, intact male rats, read-out: CL (total clearance)): 8.2 ± 0.6 mL/min/kg
clearance (male, Sprague-Dawley, plasma, 1500 mg/kg, 1500 mg/kg GHB iv, CST testosterone placebo rats, read-out: CL (total clearance)): 4.9 ± 0.4 mL/min/kg
clearance (male, Sprague-Dawley, plasma, 1500 mg/kg, 1500 mg/kg GHB iv, CST testosterone rats, read-out: CL (total clearance)): 3.2 ± 0.7 mL/min/kg
